Results taken from publication PMC4992173, “Divergent synthesis and identification of the cellular targets of deoxyelephantopins” (Nature Communications, 2016).

Target: T1, Zinc finger protein 346 (ZNF346) (Homo sapiens, UniProt Q9UL40)
T1 construct: 1,522 proteins were enriched from MCF7 cells by 10 μM probe 24c; endogenous in cells; host or cells: MCF7
Experiment: SILAC competitive profiling with probe 24c in MCF7 lysates: ZNF346
Type: binding
Details: 1 h, then 10 µM 24c
Text: In our efforts to determine the direct molecular targets of deoxyelephantopin we first performed a gel-based competitive in situ proteomic profiling assay[41] […] While the greater conformational flexibility of probe 24c could potentially lead to more promiscuous target engagement relatively to deoxyelephantopin, it was favoured based on the fact that an alkyne moiety appended to the rigid scaffold of deoxyelephantopin may hinder some of its interactions. MCF7 cells were pretreated with various concentrations of deoxyelephantopin for 4 h, harvested, lysed and the lysates were treated with the fluorogenic probe 24c-Cy3 (10 μM; Supplementary Fig. 10). […] Furthermore, cells were pretreated with 20 μM concentration of deoxyelephantopin or 24c and the proteomic profiles were compared (Fig. 6b, Supplementary Fig. 11). Multiple bands were detected that were equally competed by both DEP and 24c, thus again confirming that 24c can be used as an acceptable clickable analogue of deoxyelephantopin in pulldown assays. Having established the optimal labelling conditions by SDS–PAGE, we next carried out a mass spectrometry-based competitive profiling assay[42] coupled with the method of stable isotope labelling of amino acids in culture (SILAC)[43]. […]
visualization were performed as described above. Images were quantified with ImageJ and kinetics values were calculated using GraphPad Prism (V6.03). […]

T1 sequence (Q9UL40 whole entry): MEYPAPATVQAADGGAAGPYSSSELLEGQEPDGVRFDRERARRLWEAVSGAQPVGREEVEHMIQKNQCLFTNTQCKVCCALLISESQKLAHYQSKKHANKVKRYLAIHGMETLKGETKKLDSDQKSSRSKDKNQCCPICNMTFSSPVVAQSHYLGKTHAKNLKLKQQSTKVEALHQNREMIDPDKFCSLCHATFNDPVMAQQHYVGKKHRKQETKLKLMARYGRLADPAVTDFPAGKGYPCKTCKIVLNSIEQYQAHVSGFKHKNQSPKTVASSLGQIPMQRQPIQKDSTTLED

## C=C(C)C(=O)O[C@H]1CC2=C[C@@H](C/C(C)=C/[C@H]3OC(=O)C(=C)[C@H]13)OC2=O [deoxyelephantopin]
  SILAC ratio 20 µM Deoxyelephantopin/DMSO with 24c: 0.22
